Test: Stability in aqueous solution
Assay type: physicochemical
Settings: acidic pH (0.1% TFA)
From the text: Commercially available aminohexanoic acid 2 was N,N-dimethylated^11 12 by an Eschweiler-Clarke-type procedure (treatment with formaldehyde and hydrogen/palladium/carbon), and the resulting product (3, 86%) was esterified by treatment with methanolic hydrogen chloride to give the methyl ester 4 (96%). Quartenarization was effected by reacting 4 with monomethoxytrityl-protected bromoethanol 1, forming derivative 5 (73%). Unprotected bromoethanol could also be reacted with 4, but the reaction yield was lower and the product was more difficult to detect and purify. Monomethoxytrityl protection conferred lipophilicity and TLC detectability (UV visible and acid stainable) to the crucial intermediate 5. Saponification of 5 with lithium hydroxide/water/t-butanol gave the corresponding acid 6 (95%), which was treated without isolation with p-nitrophenol and diisopropyl carbodiimide in pyridine to give the p-nitrophenyl ester 7 (86%). Brief treatment of 7 with formic acid gave the corresponding alcohol 8, which was used directly in the next step, because of its sensitivity to self-condensation. Reaction of crude 8 at 0° C. in acetonitril with first an excess of phosphorous oxychloride and triethylamine, then water gave the desired monophosphate 9 in 22% yield from 7, after HPLC purification. […]

C[N+](C)(CCCCCC(=O)Oc1ccc([N+](=O)[O-])cc1)CCOP(=O)([O-])O [Peptide 9, 6-(N,N-Dimethylamino)-N-[(2-phosphoryloxy)-ethyl]-hexanoic acid p-nitrophenyl ester]
stability in aqueous solution: stable
